# Data as given in patent EP3404113A1, “METHOD FOR DETECTING PROTEIN-DNA INTERACTION” (Universidad del Pais Vasco, priority 2017, dated 2018).
# “Also recorded” adds a separate entry of the source.
# Key:
# FOXM1 = target: T1, FOXM1 (Homo sapiens, UniProt Q08050); test: Nanopore single-molecule measurement of the inhibition of FOXM1 binding to its DNA target sequence
# T1 construct: the FoxMIC gene (residues 222-360) was cloned in a pET-28 vector; made in house; host or cells: E. coli BL21 (DE3)
# T1 sequence (Q08050 222-360): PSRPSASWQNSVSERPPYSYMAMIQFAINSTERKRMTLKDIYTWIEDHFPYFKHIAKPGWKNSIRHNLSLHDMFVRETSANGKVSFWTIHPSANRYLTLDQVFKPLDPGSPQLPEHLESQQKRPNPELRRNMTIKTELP
# Experimental: The cis compartment (connected to the ground electrode and where samples were added) was filled with 5 mM MgCl2, 150 mM KCl, 10 mM HEPES pH 7.2 (to mimic physiological conditions) and the trans compartment with 5 mM MgCl2, 2 M KCl, 10 mM HEPES pH 7.2 (to increase the ionic current signal). 0.5 µL of previously heptamerized α-HL was added to the cis compartment and following the first insertion the chamber was manually perfused to remove excess of α-HL. Ionic currents through the αHL pore were measured using Ag/AgCl electrodes with agar bridges in 3 M KCl, and balanced before measurements. The electrodes were connected to an amplifier (Axopatch 200B, Molecular Devices), the signal was filtered at 5 kHz (lowpass Bessel filter) and acquired at 20 kHz with a digitizer (Digidata 1440A, Molecular Devices). All experiments were repeated in at least 3 different pores. Raw data was first analyzed with pClamp software (Molecular Devices) to obtain the current and dwell time of the ionic current levels, >90% of the signals longer than 10 ms were the characteristic signals described in the main text. The residual current of a level is defined as the ionic current of the level divided by the ionic current of the open pore. Data analysis was carried out with Igor Pro (Wavemetrics) and molecular representations were performed using Chimera (UCSF).^47 The confidence interval of the kinetic rates were estimated using: kupp = k⋅(1+z/√n) [formula] klow = k⋅(1−z/√n) [formula] Transcription factors are frequently considered as ideal targets for cancer therapy, yet finding molecules capable of specifically inhibiting their interactions with DNA is challenging. Motivated by the high sensitivity of our measurements, we aimed to explore the capabilities of the nanopore to detect small molecule activity. We choose the DNA binding domain of Forkhead box protein M1 (FOXM1), which is overexpressed in many cancers and for which a molecule that inhibits binding to its target sequence has been reported, FDI-6^37 (Figure 3). When a DNA hairpin containing the binding sequence^38 and a 5' overhang is subjected to nanopore analysis we observe the characteristic ionic current signal reflecting the threading, unzipping and translocation of the DNA (Figure 3a). […] In agreement with previous reports,^29 we attribute the differences in unzipping kinetics to the differences in the first base pair to be unzipped. The RepE oligonucleotide begins with G-C while that of FOXM1 begins with A-T. Following the addition of FOXM1 protein, events showing an additional step are detected (Figure 3b), which correspond to the threading of protein-bound DNA molecules, detachment of the protein, unzipping and translocation of the DNA through the pore. […]
# RepE-DNA = target: T2, RepE-DNA (Escherichia coli, UniProt P03856); test: Multiplexed nanopore single-molecule measurement, RepE-DNA pair (Reporter 1); type: binding; conditions: 0.87 µM RepE, 0.047 µM DNA, increasing amounts of FDI-6, n = 4
# T2 construct: purified from an intein vector pTXB1 containing the ORF fused with intein at the C terminus; made in house; host or cells: E. coli BL21 (DE3)
# FOXM1-DNA = target: T3, FOXM1-DNA (Homo sapiens, UniProt Q08050); test: Multiplexed nanopore single-molecule measurement, FOXM1-DNA pair (Reporter 2); type: binding; conditions: increasing amounts of FDI-6
# T3 construct: the FoxMIC gene (residues 222-360) was cloned in a pET-28 vector; made in house; host or cells: E. coli BL21 (DE3)
# T3 sequence (Q08050 222-360): T1 sequence (Q08050 222-360)
# DNA-hairpin reporter = test: Nanopore detection of a non-specific DNA interacting compound; type: binding
smiles,measurement,setting,value
Nc1c(C(=O)Nc2ccc(F)cc2)sc2nc(-c3cccs3)cc(C(F)(F)F)c12 [FDI-6],mechanism of action deduced from kinetics of DNA unzipping and protein detachment,FOXM1,"binds the protein (not the DNA), and that binding is competitive"
same,Kd,"FOXM1; affinity of the inhibitor for the protein, model: one site, reversible, binding completely prevents protein-DNA interaction, mean ± SD, n=7",139 ± 73 µM
same,koff,"FOXM1; protein detachment from DNA in the presence of FDI-6, +90 mV, 95 % CI, n = 3, compound absent 57 [96 - 18], read-out: koff,90mV,FD16",49 s⁻¹
same,fraction of events with a protein bound to DNA,FOXM1; sequential additions of FDI-6 to FOXM1-DNA solution,decreases
same,effect on the interaction between RepE and its target sequence,RepE-DNA,had no effect; also recorded: in none of our measurements was the RepE-DNA pair affected
same,fraction of events assigned to Reporter 2 with bound protein,FOXM1-DNA,decreased
COc1cccc2c1C(=O)c1c(O)c3c(c(O)c1C2=O)C[C@@](O)(C(=O)CO)C[C@@H]3O[C@H]1C[C@H](N)[C@H](O)[C@H](C)O1 [doxorubicin],ionic current traces,DNA-hairpin reporter; 2.5 mM doxorubicin added to a solution of RepE and its DNA-hairpin reporter,no characteristic signal for DNA unzipping and translocation was detected
same,ionic current signal,DNA-hairpin reporter; interaction of doxorubicin with the DNA,"radically changed the ionic current signal, giving noisy long-lived events"
